Measured values: US5498775A, “Polyanionic benzylglycosides as inhibitors of smooth muscle cell proliferation” (American Home Products Corporation, priority 1994, dated 1996)
Structures can show the parent of a compound that is named as a salt.

Experiments:
normal human plasma = test: Anticoagulant activity, partial thromboplastin time (APTT) assay; assay type: biochemical; conditions: for Anticoagulation Activity (APTT) Relative to Heparin: ratio >1 indicates weaker activity relative to heparin on a μg/mL comparison
Description: A BBL Fibrometer automatic precesion coagulation timer utilizing a 0.3 mL probe was employed. An Ellagic acid activated partial thromboplastin was used for these experiments. This reagent was added to human citrated plasma equilibrated at 37° C. in a plastic well in the clot timer. Calcium at 37° C. was added, the clot timer was started and the time for fibrin clot formation (in seconds) was recorded. […] Clotting tests at all concentrations were run in triplicate. Analysis of variance for a randomized block design was used to determine the significance of differences observed in the clotting times.

[1] = system: Porcine Smooth Muscle Cell; test: Porcine smooth muscle cell antiproliferation, 3H thymidine incorporation; assay type: cell-based; conditions: for IC50: porcine aortic smooth muscle cells, 3H thymidine incorporation
Description: Cells were assayed in early passage (generally passage 3-7) at sub-confluent conditions. […] At sub-confluence, the cells were placed in a defined serum free medium (AIM-V; Gibco) for 24-48 h prior to initiating the experimental protocol.
At the completion of the experiment, plates were placed on ice, washed three times with ice cold PBS and incubated in ice cold 10% trichloroacetic acid (TCA) for 30 min to remove acid soluble proteins. Solution was transferred to scintillation vials containing 0.4N HCl (500 μL/vial to neutralize NaOH) and each well was rinsed two times with water (500 μL) for a total volume of 2 mL/vial.
Data was obtained, in triplicate, for both control and experimental samples. […] Experimental data was obtained from cells maximally stimulated with growth factor or serum and treated with compound. Data was expressed as a percent of control from which IC50 s could be determined.

human endothelial cell = test: Effect on endothelial cell growth vs. smooth muscle cell proliferation; assay type: cell-based; conditions: driven by 2% FBS, at doses inhibitory towards human SMC proliferation driven by 10% FBS; FIG. 1
Excerpt: The ability of the compounds of the present invention to inhibit smooth muscle cell proliferation and modulate endothelial cell growth was established using isolated aortic cells obtained from commercial sources or, for certain species, prepared in-house. Cell lines used in this study include human and porcine aortic smooth muscle cells and human aortic endothelial cells. Human aortic cell lines were obtained from Clonetics Corporation (San Diego).
B. Effects of compounds on cell proliferation using ^3 H Thymidine incorporation
Cells were assayed in early passage (generally passage 3-7) at sub-confluent conditions. Cultures were grown in 16 mm (24 well) multi-well culture dishes in media 199 supplemented with 10% fetal bovine serum and 2% antibiotic/antimycotic. At sub-confluence, the cells were placed in a defined serum free medium (AIM-V; Gibco) for 24-48 h prior to initiating the experimental protocol.
Growth factor and serum stimulations were optimized for each cell type.
Compounds were added to each well at 50 fold dilution (20 μL/well) and the plates were incubated for 24-36 h at 37° C. in 5% CO2. […] Compounds were routinely assayed at 1, 10, and 100 μM. […]
Data was obtained, in triplicate, for both control and experimental samples. […] Data was expressed as a percent of control from which IC50 s could be determined. […]

Compound	Anticoagulation Activity (APTT) Relative to Heparin (normal human plasma)	other results
O=C(Nc1cc(CO[C@@H]2O[C@H](COS(=O)(=O)O)[C@@H](O[C@@H]3O[C@H](COS(=O)(=O)O)[C@@H](OS(=O)(=O)O)[C@H](OS(=O)(=O)O)[C@H]3OS(=O)(=O)O)[C@H](OS(=O)(=O)O)[C@H]2OS(=O)(=O)O)cc(CO[C@@H]2O[C@H](COS(=O)(=O)O)[C@@H](O[C@@H]3O[C@H](COS(=O)(=O)O)[C@@H](OS(=O)(=O)O)[C@H](OS(=O)(=O)O)[C@H]3OS(=O)(=O)O)[C@H](OS(=O)(=O)O)[C@H]2OS(=O)(=O)O)c1)c1ccc(-c2ccc(C(=O)Nc3cc(CO[C@@H]4O[C@H](COS(=O)(=O)O)[C@@H](O[C@@H]5O[C@H](COS(=O)(=O)O)[C@@H](OS(=O)(=O)O)[C@H](OS(=O)(=O)O)[C@H]5OS(=O)(=O)O)[C@H](OS(=O)(=O)O)[C@H]4OS(=O)(=O)O)cc(CO[C@@H]4O[C@H](COS(=O)(=O)O)[C@@H](O[C@@H]5O[C@H](COS(=O)(=O)O)[C@@H](OS(=O)(=O)O)[C@H](OS(=O)(=O)O)[C@H]5OS(=O)(=O)O)[C@H](OS(=O)(=O)O)[C@H]4OS(=O)(=O)O)c3)cc2)cc1 [EXAMPLE 15, Biphenyl-4,4'-dicarboxylic Acid Bis{[3,5-bis(hepta-O-sulfato-β-D-cellobiosyloxymethyl)phenyl]amide}Octacosasodium Salt]	2.0-2.3	
O=C(Nc1cc(CO[C@@H]2O[C@H](COS(=O)(=O)[O-])[C@@H](O[C@@H]3O[C@H](COS(=O)(=O)[O-])[C@H](OS(=O)(=O)[O-])[C@H](OS(=O)(=O)[O-])[C@H]3OS(=O)(=O)[O-])[C@H](OS(=O)(=O)[O-])[C@H]2OS(=O)(=O)[O-])cc(CO[C@@H]2O[C@H](COS(=O)(=O)[O-])[C@@H](O[C@@H]3O[C@H](COS(=O)(=O)[O-])[C@H](OS(=O)(=O)[O-])[C@H](OS(=O)(=O)[O-])[C@H]3OS(=O)(=O)[O-])[C@H](OS(=O)(=O)[O-])[C@H]2OS(=O)(=O)[O-])c1)c1ccc(-c2ccc(C(=O)Nc3cc(CO[C@@H]4O[C@H](COS(=O)(=O)[O-])[C@@H](O[C@@H]5O[C@H](COS(=O)(=O)[O-])[C@H](OS(=O)(=O)[O-])[C@H](OS(=O)(=O)[O-])[C@H]5OS(=O)(=O)[O-])[C@H](OS(=O)(=O)[O-])[C@H]4OS(=O)(=O)[O-])cc(CO[C@@H]4O[C@H](COS(=O)(=O)[O-])[C@@H](O[C@@H]5O[C@H](COS(=O)(=O)[O-])[C@H](OS(=O)(=O)[O-])[C@H](OS(=O)(=O)[O-])[C@H]5OS(=O)(=O)[O-])[C@H](OS(=O)(=O)[O-])[C@H]4OS(=O)(=O)[O-])c3)cc2)cc1.[Na+].[Na+].[Na+].[Na+].[Na+].[Na+].[Na+].[Na+].[Na+].[Na+].[Na+].[Na+].[Na+].[Na+].[Na+].[Na+].[Na+].[Na+].[Na+].[Na+].[Na+].[Na+].[Na+].[Na+].[Na+].[Na+].[Na+].[Na+] [EXAMPLE 16, Biphenyl-4,4'-dicarboxylic Acid Bis{[3,5-bis(hepta-O-sulfato-β-D-lactosyloxymethyl)phenyl]amide}Octacosasodium Salt]	2.2	IC50 [1]: 3.6 µM
O=C(Nc1cc(CO[C@@H]2O[C@H](COS(=O)(=O)O)[C@@H](OS(=O)(=O)O)[C@H](OS(=O)(=O)O)[C@H]2OS(=O)(=O)O)cc(CO[C@@H]2O[C@H](COS(=O)(=O)O)[C@@H](OS(=O)(=O)O)[C@H](OS(=O)(=O)O)[C@H]2OS(=O)(=O)O)c1)c1ccc(-c2ccc(C(=O)Nc3cc(CO[C@@H]4O[C@H](COS(=O)(=O)O)[C@@H](OS(=O)(=O)O)[C@H](OS(=O)(=O)O)[C@H]4OS(=O)(=O)O)cc(CO[C@@H]4O[C@H](COS(=O)(=O)O)[C@@H](OS(=O)(=O)O)[C@H](OS(=O)(=O)O)[C@H]4OS(=O)(=O)O)c3)cc2)cc1 [EXAMPLE 17, Biphenyl-4,4'-dicarboxylic Acid Bis{[3,5-bis(tetra-O-sulfato-β-D-glucosyloxymethyl)phenyl]amide}Hexadecasodium Salt]		Anticoagulation Activity (APTT), result in words (normal human plasma; at 50 μg/mL): insignificant activity
O=C(Nc1cc(CO[C@@H]2O[C@H](COS(=O)(=O)O)[C@@H](O[C@H]3O[C@H](COS(=O)(=O)O)[C@@H](OS(=O)(=O)O)[C@H](OS(=O)(=O)O)[C@H]3OS(=O)(=O)O)[C@H](OS(=O)(=O)O)[C@H]2OS(=O)(=O)O)cc(CO[C@@H]2O[C@H](COS(=O)(=O)O)[C@@H](O[C@H]3O[C@H](COS(=O)(=O)O)[C@@H](OS(=O)(=O)O)[C@H](OS(=O)(=O)O)[C@H]3OS(=O)(=O)O)[C@H](OS(=O)(=O)O)[C@H]2OS(=O)(=O)O)c1)c1ccc(-c2ccc(C(=O)Nc3cc(CO[C@@H]4O[C@H](COS(=O)(=O)O)[C@@H](O[C@H]5O[C@H](COS(=O)(=O)O)[C@@H](OS(=O)(=O)O)[C@H](OS(=O)(=O)O)[C@H]5OS(=O)(=O)O)[C@H](OS(=O)(=O)O)[C@H]4OS(=O)(=O)O)cc(CO[C@@H]4O[C@H](COS(=O)(=O)O)[C@@H](O[C@H]5O[C@H](COS(=O)(=O)O)[C@@H](OS(=O)(=O)O)[C@H](OS(=O)(=O)O)[C@H]5OS(=O)(=O)O)[C@H](OS(=O)(=O)O)[C@H]4OS(=O)(=O)O)c3)cc2)cc1 [EXAMPLE 18]	2.1	effect on human endothelial cell growth (human endothelial cell): enhance human endothelial cell growth
O=C(CCC(=O)Nc1cc(CO[C@@H]2O[C@H](COS(=O)(=O)O)[C@@H](O[C@@H]3O[C@H](COS(=O)(=O)O)[C@@H](OS(=O)(=O)O)[C@H](OS(=O)(=O)O)[C@H]3OS(=O)(=O)O)[C@H](OS(=O)(=O)O)[C@H]2OS(=O)(=O)O)cc(CO[C@@H]2O[C@H](COS(=O)(=O)O)[C@@H](O[C@@H]3O[C@H](COS(=O)(=O)O)[C@@H](OS(=O)(=O)O)[C@H](OS(=O)(=O)O)[C@H]3OS(=O)(=O)O)[C@H](OS(=O)(=O)O)[C@H]2OS(=O)(=O)O)c1)Nc1cc(CO[C@@H]2O[C@H](COS(=O)(=O)O)[C@@H](O[C@@H]3O[C@H](COS(=O)(=O)O)[C@@H](OS(=O)(=O)O)[C@H](OS(=O)(=O)O)[C@H]3OS(=O)(=O)O)[C@H](OS(=O)(=O)O)[C@H]2OS(=O)(=O)O)cc(CO[C@@H]2O[C@H](COS(=O)(=O)O)[C@@H](O[C@@H]3O[C@H](COS(=O)(=O)O)[C@@H](OS(=O)(=O)O)[C@H](OS(=O)(=O)O)[C@H]3OS(=O)(=O)O)[C@H](OS(=O)(=O)O)[C@H]2OS(=O)(=O)O)c1 [EXAMPLE 22, N,N'-Bis[3,5-bis(hepta-O-sulfato-β-D-cellobiosyloxymethyl)phenyl]succinamide Octacosasodium Salt]	2.0	
O=C(Nc1cc(CO[C@@H]2O[C@H](COS(=O)(=O)O)[C@@H](O[C@@H]3O[C@H](COS(=O)(=O)O)[C@@H](OS(=O)(=O)O)[C@H](OS(=O)(=O)O)[C@H]3OS(=O)(=O)O)[C@H](OS(=O)(=O)O)[C@H]2OS(=O)(=O)O)cc(CO[C@@H]2O[C@H](COS(=O)(=O)O)[C@@H](O[C@@H]3O[C@H](COS(=O)(=O)O)[C@@H](OS(=O)(=O)O)[C@H](OS(=O)(=O)O)[C@H]3OS(=O)(=O)O)[C@H](OS(=O)(=O)O)[C@H]2OS(=O)(=O)O)c1)c1ccc(C(=O)Nc2cc(CO[C@@H]3O[C@H](COS(=O)(=O)O)[C@@H](O[C@@H]4O[C@H](COS(=O)(=O)O)[C@@H](OS(=O)(=O)O)[C@H](OS(=O)(=O)O)[C@H]4OS(=O)(=O)O)[C@H](OS(=O)(=O)O)[C@H]3OS(=O)(=O)O)cc(CO[C@@H]3O[C@H](COS(=O)(=O)O)[C@@H](O[C@@H]4O[C@H](COS(=O)(=O)O)[C@@H](OS(=O)(=O)O)[C@H](OS(=O)(=O)O)[C@H]4OS(=O)(=O)O)[C@H](OS(=O)(=O)O)[C@H]3OS(=O)(=O)O)c2)cc1 [EXAMPLE 23, N,N '-Bis[3,5-bis(hepta-O-sulfato-β-D-cellobiosyloxymethyl)phenyl]terephthalamide Octacosasodium Salt]	2.0	
Cc1ccc(CO[C@@H]2O[C@H](COS(=O)(=O)O)[C@@H](OS(=O)(=O)O)[C@H](OS(=O)(=O)O)[C@H]2OS(=O)(=O)O)cc1NC(=O)CCC(=O)Nc1cc(CO[C@@H]2O[C@H](COS(=O)(=O)O)[C@@H](OS(=O)(=O)O)[C@H](OS(=O)(=O)O)[C@H]2OS(=O)(=O)O)ccc1C [EXAMPLE 25, N,N'-Bis[2-methyl-5-(2,3,4,6-tetra-O-suifato-β-D-glucopyranosyloxymethyl)phenyl]succinamide Octasodium Salt]		inhibition at 50 µg/mL ([1]; Sus scrofa, read-out: Porcine Smooth Muscle Cell Antiproliferation, % Inhibition at 50 μg/mL): 8%
Decanedioic Acid Bis{[3,5-bis(hepta-O-sulfato-β-D-cellobiosyloxymethyl}phenyl]amide} Octacosasodium Salt [EXAMPLE 14]	6.7	IC50 [1]: 3 µM
